The source of these data is PMC12067278, “A responsive living material prepared by diffusion reveals extracellular enzyme activity of cyanobacteria” (Proceedings of the National Academy of Sciences of the …, 2025).

The target of this assay is T1, AmiX (Synpcc7942_1548 gene product, putative amidase) (Synechococcus elongatus, UniProt Q31MZ1).
T1 construct: expressed in E. coli BL21, clarified lysate assayed; ORF PCR product ~1,320 bp
T1 sequence (Q31MZ1 1-439 limits assumed): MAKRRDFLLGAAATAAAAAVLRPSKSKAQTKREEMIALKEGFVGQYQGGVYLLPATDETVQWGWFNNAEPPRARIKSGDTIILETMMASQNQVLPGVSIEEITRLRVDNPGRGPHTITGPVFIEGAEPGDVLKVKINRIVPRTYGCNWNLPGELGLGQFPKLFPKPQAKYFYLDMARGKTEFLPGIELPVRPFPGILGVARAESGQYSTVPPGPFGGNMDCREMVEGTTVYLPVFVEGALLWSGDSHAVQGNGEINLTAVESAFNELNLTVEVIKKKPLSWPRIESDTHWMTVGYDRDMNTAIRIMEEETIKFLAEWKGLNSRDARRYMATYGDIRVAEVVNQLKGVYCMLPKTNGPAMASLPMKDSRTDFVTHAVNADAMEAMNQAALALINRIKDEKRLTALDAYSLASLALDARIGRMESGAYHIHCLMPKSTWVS
The experiment in a line: NBD-Cl amine-detection fluorescence assay ([…] nm), E. coli lysate. Conditions: 50 mM potassium phosphate pH 7.5, 2.5 mM NIPAm (50 uL of 50 mM in 1 mL), 20 h, high lysate background. In kind it is biochemical.

As to `C=CC(=O)NC(C)C` [NIPAm, N-isopropylacrylamide], the “NBD-Cl amine-detection fluorescence assay (485/538 nm), E. coli lysate” value is “the lysate containing both the S. elongatus amidase and NIPAm produced significantly more fluorescence”.
